Measurements from US12252524B2, “GIP/GLP1 co-agonist compounds” (Eli Lilly and Company, priority 2018, dated 2025).
Where two headings read alike, the source gives them in different places. Numbered stars: 1 amine (or outer) side, 2 acyl side, 3 side chain; on linkers, the order of the positions; unused ones are H or OH. Square brackets hold non-standard residues; d marks the D form. Side chains are listed from the residue outwards. Peptide text beside a SMILES is read from it. * marks the point of attachment. C20 diacid = O=C(O)CCCCCCCCCCCCCCCCCCC(=O)*; C18 diacid = O=C(O)CCCCCCCCCCCCCCCCC(=O)*; γGlu = O=C(O)[C@H](CCC(=O)[*:2])N[*:1]; αMeL = CC(C)C[C@](C)(N)C(=O)O; Orn = NCCC[C@H](N)C(=O)O; AEEA = NCCOCCOCC(=O)O; Aib = CC(C)(N)C(=O)O

Legend:
human Gcg receptor = target: T1, human Gcg receptor (Homo sapiens, UniProt P47871); test: [125I]-Glucagon binding (SPA), human Gcg receptor; conditions: read-out: hGLcgR Ki, nM (SEM, n)
T1 construct: expressed in transfected cells; crude membranes
Procedure, shortened: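 Cell pellets were lysed in hypotonic Tris buffer, pH 7.5, homogenized, and spun at low then high speed to give crude membranes. Ki was derived from the fitted IC50.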

human GIP receptor = target: T2, human GIP receptor (Homo sapiens, UniProt P48546); test: [125I]-GIP binding (SPA), human GIP receptor; conditions: read-out: hGIPR Ki, nM (SEM, n)
T2 construct: expressed in transfected cells; crude membranes
T2 sequence (P48546 22-466): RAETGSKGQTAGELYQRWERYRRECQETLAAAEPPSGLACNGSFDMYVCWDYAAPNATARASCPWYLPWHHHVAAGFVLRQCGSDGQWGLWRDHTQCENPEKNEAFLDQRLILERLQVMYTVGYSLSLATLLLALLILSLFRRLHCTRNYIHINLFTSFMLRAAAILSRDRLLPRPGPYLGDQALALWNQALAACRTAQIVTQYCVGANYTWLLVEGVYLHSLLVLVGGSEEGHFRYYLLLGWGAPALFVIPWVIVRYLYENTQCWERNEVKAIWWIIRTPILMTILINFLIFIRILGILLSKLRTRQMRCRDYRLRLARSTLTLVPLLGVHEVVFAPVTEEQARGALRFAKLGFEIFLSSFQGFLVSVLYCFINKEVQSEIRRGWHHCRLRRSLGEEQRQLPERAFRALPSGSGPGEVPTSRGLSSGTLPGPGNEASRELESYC

[1] = target: human GLP-1 receptor (GLP-1R) (Homo sapiens, UniProt P43220); test: cAMP pharmacological functional assay in presence of casein, hGLP-1R; assay type: cell-based; conditions: HEK293 cells expressing hGLP-1R, 0.1% Casein, geometric mean; read-out: hGLP1R cAMP Rel EC50 nM (SEM, n)
[2] = target: T3, gastric inhibitory peptide receptor (GIPR) (Homo sapiens, UniProt P48546); test: cAMP pharmacological functional assay in presence of casein, hGIPR; assay type: cell-based; conditions: HEK293 cells expressing hGIPR, 0.1% Casein, geometric mean; read-out: hGIPR cAMP Rel EC50 nM (SEM, n)
T3 sequence (P48546 22-466): T2 sequence (P48546 22-466)

human GLP-1R [3] = target: T4, human GLP-1R (Homo sapiens, UniProt P43220); test: [125I]-GLP-1 binding (SPA), human GLP-1 receptor; set-up: expressed in transfected cells; crude membranes; conditions: read-out: hGLP1R Ki, (nM) (SEM, n)
Procedure, shortened: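 Frozen cell pellets are lysed on ice in hypotonic Tris buffer, pH 7.5, homogenized, and centrifuged to a membrane pellet resuspended at about 1 to 3 mg/mL. Binding is then measured in HEPES-based buffer at pH 7.4, and curves are fitted to give IC50 and Ki.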

human GLP-1R [4] = target: T4, human GLP-1R; test: GLP-1R CHO cell β-arrestin recruitment assay; assay type: cell-based; set-up: host or cells: CHO-K1 PathHunter cells, assay-ready frozen; conditions: for EC50: CHO-K1 cells; for hGLP1R B-Arrestin2 % Top: normalized to GLP-1 maximum control
Description: Activated G-protein coupled receptors can interact with the β-arrestin family of signalling proteins. […] CHO-K1 cells expressing Pro-Link-tagged Human GLP-1R and enzyme-acceptor-tagged β-arrestin-2 may be obtained from DiscoveRx and prepared as assay-ready frozen cells. Test peptides are solubilized in DMSO and serial dilutions are perfomed using the Echo acoustic dispenser (LabCyte). Assay media is the PathHunter Cell Assay Buffer (DiscoveRx) containing 0.1% w/v hydrolyzed Casein (Sigma). […] Plates are incubated for 90 minutes in a 37′C/5% C02 incubator and 10 ul of PathHunter detection reagent is added (DiscoveRx) and plates are incubated at room temperature for 60 minutes. Luminescence signal is measured. Peptide concentration-response curves fit to a four-parameter logistic model to calculate potency as an EC50.

[5] = PathHunter β-arrestin-2 recruitment, 0.1% casein, read-out: hGLP1R B-Arrestin2 Rel EC50 uM (SEM, n)
[6] = 0.1% w/v hydrolyzed Casein, read-out: hGLP1R B-Arrestin2 Rel EC50

T1 sequence (P47871 26-477): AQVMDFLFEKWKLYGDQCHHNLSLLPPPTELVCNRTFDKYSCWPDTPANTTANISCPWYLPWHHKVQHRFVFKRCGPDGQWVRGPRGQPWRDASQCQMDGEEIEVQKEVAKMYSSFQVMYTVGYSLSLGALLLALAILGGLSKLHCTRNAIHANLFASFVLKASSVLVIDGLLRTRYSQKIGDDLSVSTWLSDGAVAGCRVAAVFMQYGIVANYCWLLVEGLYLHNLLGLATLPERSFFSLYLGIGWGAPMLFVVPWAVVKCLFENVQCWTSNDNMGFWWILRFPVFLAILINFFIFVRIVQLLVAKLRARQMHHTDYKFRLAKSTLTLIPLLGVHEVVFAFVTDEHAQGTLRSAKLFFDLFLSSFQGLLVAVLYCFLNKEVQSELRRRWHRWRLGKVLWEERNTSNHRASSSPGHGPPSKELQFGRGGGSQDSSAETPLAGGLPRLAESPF
T4 sequence (P43220 24-463): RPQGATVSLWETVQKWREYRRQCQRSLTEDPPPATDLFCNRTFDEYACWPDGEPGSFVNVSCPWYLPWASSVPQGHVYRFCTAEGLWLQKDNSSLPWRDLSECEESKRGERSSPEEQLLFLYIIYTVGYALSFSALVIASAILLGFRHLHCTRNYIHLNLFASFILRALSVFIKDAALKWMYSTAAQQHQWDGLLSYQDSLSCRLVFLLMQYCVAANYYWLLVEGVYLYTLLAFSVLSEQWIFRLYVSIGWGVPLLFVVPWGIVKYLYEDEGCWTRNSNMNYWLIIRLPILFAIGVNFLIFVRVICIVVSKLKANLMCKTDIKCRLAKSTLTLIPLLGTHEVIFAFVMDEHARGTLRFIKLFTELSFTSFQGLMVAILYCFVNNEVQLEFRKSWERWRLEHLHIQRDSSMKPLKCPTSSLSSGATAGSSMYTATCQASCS
human GLP-1 receptor (GLP-1R), sequence (P43220 24-463): as above

Row | SMILES | Ki (human Gcg receptor) | Ki (human GIP receptor) | EC50 [1] | EC50 [2] | Ki (human GLP-1R [3]) | EC50 (human GLP-1R [4]; [5]) | hGLP1R B-Arrestin2 % Top (human GLP-1R [4]) | EC50 (human GLP-1R [4]; [6])
1 | CC[C@H](C)[C@H](NC(=O)[C@H](CC(C)C)NC(=O)[C@H](Cc1ccc(O)cc1)NC(=O)[C@@H](CCC(=O)O)NC(=O)[C@@H](NC(=O)[C@H](Cc1ccccc1)NC(=O)[C@H](C)NC(=O)C(C)(C)NC(=O)[C@H](CCC(N)=O)NC(=O)[C@H](C)NC(=O)[C@H](CCCCNC(=O)COCCOCCNC(=O)COCCOCCNC(=O)CC[C@H](NC(=O)CCCCCCCCCCCCCCCCCCC(=O)O)C(=O)O)NC(=O)[C@H](CCCN)NC(=O)[C@H](CC(=O)O)NC(=O)[C@H](CC(C)C)NC(=O)[C@](C)(CC(C)C)NC(=O)[C@@H](NC(=O)[C@H](CO)NC(=O)[C@H](Cc1ccc(O)cc1)NC(=O)[C@H](CC(=O)O)NC(=O)[C@H](CO)NC(=O)[C@@H](NC(=O)[C@H](Cc1ccccc1)NC(=O)[C@@H](NC(=O)CNC(=O)[C@H](CCC(=O)O)NC(=O)C(C)(C)NC(=O)[C@H](N)Cc1ccc(O)cc1)[C@@H](C)O)[C@@H](C)O)[C@@H](C)CC)[C@@H](C)CC)C(=O)N[C@@H](CCC(=O)O)C(=O)NCC(=O)NCC(=O)N1CCC[C@H]1C(=O)N[C@@H](CO)C(=O)N[C@@H](CO)C(=O)NCC(=O)N[C@@H](C)C(=O)N1CCC[C@H]1C(=O)N1CCC[C@H]1C(=O)N1CCC[C@H]1C(=O)N[C@@H](CO)C(N)=O [Example 357] | > 977 nM | 0.316 nM | 0.181 nM | 0.384 nM | 7.02 nM | 0.118 µM | 18.2% | 
2 | CC[C@H](C)[C@H](NC(=O)[C@H](CC(C)C)NC(=O)[C@H](Cc1ccc(O)cc1)NC(=O)[C@H](CCC(=O)O)NC(=O)[C@@H](NC(=O)[C@H](Cc1ccccc1)NC(=O)[C@H](C)NC(=O)C(C)(C)NC(=O)[C@H](CCC(N)=O)NC(=O)[C@H](C)NC(=O)[C@H](CCCCNC(=O)COCCOCCNC(=O)COCCOCCNC(=O)CC[C@H](NC(=O)CCCCCCCCCCCCCCCCCCC(=O)O)C(=O)O)NC(=O)[C@H](CCCN)NC(=O)[C@H](CC(=O)O)NC(=O)[C@H](CC(C)C)NC(=O)[C@](C)(CC(C)C)NC(=O)[C@@H](NC(=O)[C@H](CO)NC(=O)[C@H](Cc1ccc(O)cc1)NC(=O)[C@H](CC(=O)O)NC(=O)[C@H](CO)NC(=O)[C@@H](NC(=O)[C@H](Cc1ccccc1)NC(=O)[C@@H](NC(=O)CNC(=O)[C@H](CCC(=O)O)NC(=O)C(C)(C)NC(=O)[C@H](N)Cc1ccc(O)cc1)[C@@H](C)O)[C@@H](C)O)[C@@H](C)CC)C(C)C)C(=O)N[C@@H](CCC(=O)O)C(=O)NCC(=O)NCC(=O)N1CCC[C@H]1C(=O)N[C@@H](CO)C(=O)N[C@@H](CO)C(=O)NCC(=O)N[C@@H](C)C(=O)N1CCC[C@H]1C(=O)N1CCC[C@H]1C(=O)N1CCC[C@H]1C(=O)N[C@@H](CO)C(N)=O [Example 360] (H-[dY][Aib]EGTFTSDYSI[αMeL]LD[Orn]K([AEEA-AEEA-γGlu-C20 diacid])AQ[Aib]AFVEYLIEGGPSSGAPPPS-NH2) | 485 nM | 0.128 nM | 0.145 nM | 0.197 nM | 1.74 nM | 0.0395 µM | 25.8% | 
3 | CC[C@H](C)[C@H](NC(=O)[C@H](CC(C)C)NC(=O)[C@H](Cc1ccc(O)cc1)NC(=O)[C@@H](CCC(=O)O)NC(=O)[C@@H](NC(=O)[C@H](Cc1ccccc1)NC(=O)[C@H](C)NC(=O)C(C)(C)NC(=O)[C@H](CCC(N)=O)NC(=O)[C@H](C)NC(=O)[C@H](CCCCNC(=O)COCCOCCNC(=O)COCCOCCNC(=O)CC[C@H](NC(=O)CCCCCCCCCCCCCCCCCCC(=O)O)C(=O)O)NC(=O)[C@H](CCCN)NC(=O)[C@H](CC(=O)O)NC(=O)[C@H](CC(C)C)NC(=O)[C@](C)(CC(C)C)NC(=O)[C@@H](NC(=O)[C@H](CO)NC(=O)[C@H](Cc1ccc(O)cc1)NC(=O)[C@H](CC(=O)O)NC(=O)[C@H](CO)NC(=O)[C@@H](NC(=O)[C@H](Cc1ccccc1)NC(=O)[C@@H](NC(=O)CNC(=O)[C@H](CCC(=O)O)NC(=O)C(C)(C)NC(=O)[C@H](N)Cc1ccc(O)cc1)[C@@H](C)O)[C@@H](C)O)[C@@H](C)CC)C(C)C)C(=O)N[C@@H](C)C(=O)NCC(=O)NCC(=O)N1CCC[C@H]1C(=O)N[C@@H](CO)C(=O)N[C@@H](CO)C(=O)NCC(=O)N[C@@H](C)C(=O)N1CCC[C@H]1C(=O)N1CCC[C@H]1C(=O)N1CCC[C@H]1C(=O)N[C@@H](CO)C(N)=O [Example 362] (H-[dY][Aib]EGTFTSDYSI[αMeL]LD[Orn]K([AEEA-AEEA-γGlu-C20 diacid])AQ[Aib]AFV[dE]YLIAGGPSSGAPPPS-NH2) | > 1050 nM | 0.337 nM | 0.365 nM | 0.302 nM | 6.95 nM | > 11 µM |  | > 11 µM
4 | CC[C@H](C)[C@H](NC(=O)[C@H](CC(C)C)NC(=O)[C@H](Cc1ccc(O)cc1)NC(=O)[C@@H](CCC(=O)O)NC(=O)[C@@H](NC(=O)[C@H](Cc1ccccc1)NC(=O)[C@H](C)NC(=O)C(C)(C)NC(=O)[C@H](CCC(N)=O)NC(=O)[C@H](C)NC(=O)[C@H](CCCCNC(=O)COCCOCCNC(=O)COCCOCCNC(=O)CC[C@H](NC(=O)CCCCCCCCCCCCCCCCC(=O)O)C(=O)O)NC(=O)[C@H](CCCN)NC(=O)[C@H](CC(=O)O)NC(=O)[C@H](CC(C)C)NC(=O)[C@](C)(CC(C)C)NC(=O)[C@@H](NC(=O)[C@H](CO)NC(=O)[C@H](Cc1ccc(O)cc1)NC(=O)[C@H](CC(=O)O)NC(=O)[C@H](CO)NC(=O)[C@@H](NC(=O)[C@H](Cc1ccccc1)NC(=O)[C@@H](NC(=O)CNC(=O)[C@H](CCC(=O)O)NC(=O)C(C)(C)NC(=O)[C@H](N)Cc1ccc(O)cc1)[C@@H](C)O)[C@@H](C)O)[C@@H](C)CC)C(C)C)C(=O)N[C@@H](C)C(=O)NCC(=O)NCC(=O)N1CCC[C@H]1C(=O)N[C@@H](CO)C(=O)N[C@@H](CO)C(=O)NCC(=O)N[C@@H](C)C(=O)N1CCC[C@H]1C(=O)N1CCC[C@H]1C(=O)N1CCC[C@H]1C(=O)N[C@@H](CO)C(N)=O [Example 364] (H-[dY][Aib]EGTFTSDYSI[αMeL]LD[Orn]K([AEEA-AEEA-γGlu-C18 diacid])AQ[Aib]AFV[dE]YLIAGGPSSGAPPPS-NH2) | > 1150 nM | 0.672 nM | 1 nM | 0.351 nM | 17.2 nM | > 12 µM |  | > 12 µM
